Reference: patent US20240400586A1, “HETEROARYL DERIVATIVE PARP INHIBITOR AND USE THEREOF” (HAISCO PHARMACEUTICAL GROUP CO., LTD., priority 2021, published 2024)

system: breast tumor cells MDA-MB-436; test: MDA-MB-436 cell activity test (CellTiter-Glo, 7 days); format: cell-based; settings: Homo sapiens, MDA-MB-436, 168 h; 10 μM, 7 days incubation; read-out: MDA-MB-436 Max inh. % 10 μM
Method: Breast tumor cells MDA-MB-436 were purchased from ATCC, the culture medium was Leibovitz's L-15+10% FBS, and the cells were cultured in a CO2-free incubator at 37° C. On day 1, the cells in the exponential growth phase were collected, and the cell suspension was adjusted to 4000 cells/135 μL with the culture medium. 135 μL of the cell suspension was added to each well of a 96-well cell culture plate and incubated overnight. On day 2, compounds at different concentrations were added, and the plate was placed in the incubator and incubated for 7 days. After the incubation was completed, according to operation instructions for a CellTiter-Glo kit (Promega, G7573), 75 μL of CTG solution, which was already pre-melted and equilibrated to room temperature, was added to each well, and the mixture was uniformly mixed for 2 min using a microplate shaker. The plate was placed at room temperature for 10 min, and then […] were measured using an Envision2104 plate reader (PerkinElmer). The inhibition rate was calculated using formula (1), where RLUcompound was the readout of the drug treated group, RLUcontrol was the average value of the vehicle control group, and RLUblank was the average value of the cell-free well. The IC50 value was calculated using GraphPad Prism software.

SMILES	inhibition at 10 µM [%]
CCc1cc2ncc(CN3CCN(c4ccc(NC(=O)[C@H]5C[C@H]5F)nc4)CC3)cc2[nH]c1=O [Compound 34, (1R,2R)—N-(5-(4-((7-ethyl-6-oxo-5,6-dihydro-1,5-naphthyridin-3-yl)methyl)piperazin-1-yl)pyridin-2-yl)-2-fluorocyclopropane-1-carboxamide]	81.9
CCc1cc2ncc(CN3CCN(c4ccc(NC(=O)[C@@H]5C[C@H]5F)nc4)CC3)cc2[nH]c1=O [Compound 35, (1S,2R)—N-(5-(4-((7-ethyl-6-oxo-5,6-dihydro-1,5-naphthyridin-3-yl)methyl)piperazin-1-yl)pyridin-2-yl)-2-fluorocyclopropane-1-carboxamide]	90.4
CCc1cc2ncc(CN3CCN(c4ccc(C(=O)NCCOC5CC5(F)F)nc4)CC3)cc2[nH]c1=O (stereo not shown) [Compound 52, N-(2-(2,2-difluorocyclopropoxy)ethyl)-5-(4-((7-ethyl-6-oxo-5,6-dihydro-1,5-naphthyridin-3-yl)methyl)piperazin-1-yl)picolinamide]	92.4
CCc1cc2ncc(CN3CCN(c4ccc(C(=O)NCCOC5CC5)nc4)CC3)cc2[nH]c1=O [Compound 53, N-(2-cyclopropoxyethyl)-5-(4-((7-ethyl-6-oxo-5,6-dihydro-1,5-naphthyridin-3-yl)methyl)piperazin-1-yl)picolinamide]	90.6

same assay, conditions: Homo sapiens, MDA-MB-436, 168 h; 7 days incubation; read-out: MDA-MB-436 cell inhibitory activity IC50

SMILES	IC50 [nM]
CCc1cc2ncc(CN3CCN(c4ccc(NC(=O)[C@H]5C[C@H]5F)nc4)CC3)cc2[nH]c1=O [Compound 34, (1R,2R)—N-(5-(4-((7-ethyl-6-oxo-5,6-dihydro-1,5-naphthyridin-3-yl)methyl)piperazin-1-yl)pyridin-2-yl)-2-fluorocyclopropane-1-carboxamide]	16.5
CCc1cc2ncc(CN3CCN(c4ccc(NC(=O)[C@@H]5C[C@H]5F)nc4)CC3)cc2[nH]c1=O [Compound 35, (1S,2R)—N-(5-(4-((7-ethyl-6-oxo-5,6-dihydro-1,5-naphthyridin-3-yl)methyl)piperazin-1-yl)pyridin-2-yl)-2-fluorocyclopropane-1-carboxamide]	9.8

Second part, the compound after the results:

IC50 [nM]	SMILES
3.1	CCc1cc2ncc(CN3CCN(c4ccc(C(=O)NCCOC5CC5(F)F)nc4)CC3)cc2[nH]c1=O (stereo not shown) [Compound 52, N-(2-(2,2-difluorocyclopropoxy)ethyl)-5-(4-((7-ethyl-6-oxo-5,6-dihydro-1,5-naphthyridin-3-yl)methyl)piperazin-1-yl)picolinamide]
2.2	CCc1cc2ncc(CN3CCN(c4ccc(C(=O)NCCOC5CC5)nc4)CC3)cc2[nH]c1=O [Compound 53, N-(2-cyclopropoxyethyl)-5-(4-((7-ethyl-6-oxo-5,6-dihydro-1,5-naphthyridin-3-yl)methyl)piperazin-1-yl)picolinamide]

target: PARP-1 enzyme (Homo sapiens (Human), UniProt P09874); test: PARP1 enzyme activity test (BPS Bioscience chemiluminescence kit); format: biochemical; settings: not given
Sequence (P09874 whole entry): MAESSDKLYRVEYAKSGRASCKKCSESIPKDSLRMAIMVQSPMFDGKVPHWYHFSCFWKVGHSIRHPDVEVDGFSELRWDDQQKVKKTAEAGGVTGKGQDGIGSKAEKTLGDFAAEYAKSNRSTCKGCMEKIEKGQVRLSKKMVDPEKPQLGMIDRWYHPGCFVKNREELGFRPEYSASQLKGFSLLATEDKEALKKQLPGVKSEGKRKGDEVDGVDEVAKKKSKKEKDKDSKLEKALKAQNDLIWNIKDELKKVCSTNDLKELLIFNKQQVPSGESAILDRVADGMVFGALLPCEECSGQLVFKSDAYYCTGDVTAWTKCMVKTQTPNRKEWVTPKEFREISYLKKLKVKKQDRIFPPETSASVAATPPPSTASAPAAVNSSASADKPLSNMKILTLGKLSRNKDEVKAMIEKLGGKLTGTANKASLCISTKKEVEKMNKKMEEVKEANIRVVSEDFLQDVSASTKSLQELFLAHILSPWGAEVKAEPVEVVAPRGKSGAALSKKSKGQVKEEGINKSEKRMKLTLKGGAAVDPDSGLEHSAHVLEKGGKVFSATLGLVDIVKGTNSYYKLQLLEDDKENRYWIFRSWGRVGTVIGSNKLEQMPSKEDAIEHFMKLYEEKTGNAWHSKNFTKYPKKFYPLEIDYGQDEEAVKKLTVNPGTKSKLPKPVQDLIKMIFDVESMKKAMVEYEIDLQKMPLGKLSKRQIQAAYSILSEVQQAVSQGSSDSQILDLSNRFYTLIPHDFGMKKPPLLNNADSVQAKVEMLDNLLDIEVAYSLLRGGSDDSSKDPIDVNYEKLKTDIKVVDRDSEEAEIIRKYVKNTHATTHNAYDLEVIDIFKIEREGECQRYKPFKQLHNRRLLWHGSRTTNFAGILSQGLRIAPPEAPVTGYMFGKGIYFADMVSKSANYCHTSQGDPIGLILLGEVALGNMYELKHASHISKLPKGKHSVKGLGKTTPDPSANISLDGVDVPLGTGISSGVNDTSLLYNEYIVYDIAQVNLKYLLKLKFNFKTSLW
Description: Inhibition %=(1−(RLUsample−RLUmin)/(RLUmax−RLUmin))×100% (formula 1)

SMILES	IC50 [nM]
CCc1cc2ncc(CN3CCN(c4ccc5c(c4)CN(C)C5=O)CC3)cc2[nH]c1=O [Compound 1, 3-ethyl-7-((4-(2-methyl-1-oxoisoindolin-5-yl)piperazin-1-yl)methyl)-1,5-naphthyridin-2 (1H)-one]	3.66
CCc1cc2ncc(CN3CCN(c4cnc(C(=O)NC)cn4)CC3)cc2[nH]c1=O [Compound 2, 5-(4-((7-ethyl-6-oxo-5,6-dihydro-1,5-naphthyridin-3-yl)methyl)piperazin-1-yl)-N-methylpyrazine-2-carboxamide]	2.01
CCc1cc2ncc(CN3CCN(c4ccc(-c5nnc(C)o5)nc4)CC3)cc2[nH]c1=O [Compound 3, 3-ethyl-7-((4-(6-(5-methyl-1,3,4-oxadiazol-2-yl)pyridin-3-yl)piperazin-1-yl)methyl)-1,5-naphthyridin-2 (1H)-one]	1.33
CCc1cc2ncc(CN3CCN(c4ccc(NC(=O)OC)nc4)CC3)cc2[nH]c1=O [Compound 8, methyl(5-(4-((7-ethyl-6-oxo-5,6-dihydro-1,5-naphthyridin-3-yl)methyl)piperazin-1-yl)pyridin-2-yl)carbamate]	0.58
CCc1cc2ncc(CN3CCN(c4cnc(C(=O)NC)cc4F)CC3)cc2[nH]c1=O [Compound 12, 5-(4-((7-ethyl-6-oxo-5,6-dihydro-1,5-naphthyridin-3-yl)methyl)piperazin-1-yl)-4-fluoro-N-methylpicolinamide]	1.6
CCc1cc2ncc(CN3CCN(c4ccc(NC(=O)NC)nc4)CC3)cc2[nH]c1=O [Compound 14, 1-(5-(4-((7-ethyl-6-oxo-5,6-dihydro-1,5-naphthyridin-3-yl)methyl)piperazin-1-yl)pyridin-2-yl)-3-methylurea]	0.71
CCc1cc2ncc(CN3CCN(c4cn5cc(C)nc5cn4)CC3)cc2[nH]c1=O [Compound 15, 3-ethyl-7-((4-(2-methylimidazo[1,2-a]pyrazin-6-yl)piperazin-1-yl)methyl)-1,5-naphthyridin-2 (1H)-one]	0.65
CCc1cc2ncc(CN3CCN(c4ccc5nc(C)cn5n4)CC3)cc2[nH]c1=O [Compound 27, 3-ethyl-7-((4-(2-methylimidazo[1,2-b]pyridazin-6-yl)piperazin-1-yl)methyl)-1,5-naphthyridin-2 (1H)-one]	0.75
CCc1cc2ncc(CN3CCN(c4ccc(-c5cnn[nH]5)nc4)CC3)cc2[nH]c1=O [Compound 29, 7-((4-(6-(1H-1,2,3-triazol-5-yl)pyridin-3-yl)piperazin-1-yl)methyl)-3-ethyl-1,5-naphthyridin-2 (1H)-one]	0.45
CCc1cc2ncc(CN3CCN(c4ccc(-c5ccn[nH]5)nc4)CC3)cc2[nH]c1=O [Compound 30, 7-((4-(6-(1H-pyrazol-5-yl)pyridin-3-yl)piperazin-1-yl)methyl)-3-ethyl-1,5-naphthyridin-2 (1H)-one]	0.45
CCc1cc2ncc(CN3CCN(c4ccc5nc(C)nn5c4)CC3)cc2[nH]c1=O [Compound 31, 3-ethyl-7-((4-(2-methyl-[1,2,4]triazolo[1,5-a]pyridin-6-yl)piperazin-1-yl)methyl)-1,5-naphthyridin-2 (1H)-one]	1.7
CCc1cc2ncc(CN3CCN(c4ccc(Nc5ccn(C)n5)nc4)CC3)cc2[nH]c1=O [Compound 32, 3-ethyl-7-((4-(6-((1-methyl-1H-pyrazol-3-yl)amino)pyridin-3-yl)piperazin-1-yl)methyl)-1,5-naphthyridin-2 (1H)-one]	2
CCc1cc2ncc(CN3CCN(c4cn5cc(C(F)(F)F)nc5cn4)CC3)cc2[nH]c1=O [Compound 43, 3-ethyl-7-((4-(2-(trifluoromethyl)imidazo[1,2-a]pyrazin-6-yl)piperazin-1-yl)methyl)-1,5-naphthyridin-2 (1H)-one]	0.93

Other lines, results leading:

IC50 [nM]	SMILES
0.32	CCc1cc2ncc(CN3CCN(c4ccc(NC(C)=O)nc4)CC3)cc2[nH]c1=O [Compound 7, N-(5-(4-((7-ethyl-6-oxo-5,6-dihydro-1,5-naphthyridin-3-yl)methyl)piperazin-1-yl)pyridin-2-yl)acetamide]
0.76	CCc1cc2ncc(CN3CCN(c4cnc(C(=O)NC5CC5)cc4F)CC3)cc2[nH]c1=O [Compound 13, N-cyclopropyl-5-(4-((7-ethyl-6-oxo-5,6-dihydro-1,5-naphthyridin-3-yl)methyl)piperazin-1-yl)-4-fluoropicolinamide]
0.51	CCc1cc2ncc(CN3CCN(c4ccc(C(=O)NC5CCNCC5)nc4)CC3)cc2[nH]c1=O [Compound 16, 5-(4-((7-ethyl-6-oxo-5,6-dihydro-1,5-naphthyridin-3-yl)methyl)piperazin-1-yl)-N-(piperidin-4-yl)picolinamide]
0.35	CCc1cc2ncc(CN3CCN(c4ccc(C(=O)NC5CCN(C)CC5)nc4)CC3)cc2[nH]c1=O [Compound 17, 5-(4-((7-ethyl-6-oxo-5,6-dihydro-1,5-naphthyridin-3-yl)methyl)piperazin-1-yl)-N-(1-methylpiperidin-4-yl)picolinamide]
0.33	CCc1cc2ncc(CN3CCN(c4ccc(C(=O)N[C@@H]5CCNC5)nc4)CC3)cc2[nH]c1=O [Compound 18, (R)-5-(4-((7-ethyl-6-oxo-5,6-dihydro-1,5-naphthyridin-3-yl)methyl)piperazin-1-yl)-N-(pyrrolidin-3-yl)picolinamide]
0.32	CCc1cc2ncc(CN3CCN(c4ccc(C(=O)N[C@H]5CCNC5)nc4)CC3)cc2[nH]c1=O [Compound 20, (S)-5-(4-((7-ethyl-6-oxo-5,6-dihydro-1,5-naphthyridin-3-yl)methyl)piperazin-1-yl)-N-(pyrrolidin-3-yl)picolinamide]
0.58	CCc1cc2ncc(CN3CCN(c4ccc(NC(=O)[C@H]5CCN(C)C5)nc4)CC3)cc2[nH]c1=O [Compound 36, (S)—N-(5-(4-((7-ethyl-6-oxo-5,6-dihydro-1,5-naphthyridin-3-yl)methyl)piperazin-1-yl)pyridin-2-yl)-1-methylpyrrolidine-3-carboxamide]
